Earlier results, collected in PMC8679839, “Interleukin‐2‐inducible T‐cell kinase (Itk) signaling regulates potent noncanonical regulatory T cells” (Clinical and Translational Medicine, 2021).

Test system: Tregs
Excerpt: Tregs are critical for the maintenance of tolerance, and transfer of Treg cells can ameliorate GVHD by restoring defective tolerance mechanisms.[41] One of the biggest challenges is to isolate functional Tregs in large numbers for immunotherapy.[42] This challenge is due to the low number of Tregs in peripheral blood.[4] Given their low numbers in the blood, it is difficult to obtain enough Tregs in the clinic for use as a therapy. If the number of collected canTregs and ncTregs could be increased for use in GVHD patients, such patients could be better protected from GVHD and other autoimmune ...

CO[C@H]1C[C@@H]2CC[C@@H](C)[C@@](O)(O2)C(=O)C(=O)N2CCCC[C@H]2C(=O)O[C@H]([C@H](C)C[C@@H]2CC[C@@H](O)[C@H](OC)C2)CC(=O)[C@H](C)/C=C(\C)[C@@H](O)[C@@H](OC)C(=O)[C@H](C)C[C@H](C)/C=C/C=C/C=C/1C [rapamycin]
Treg number after in vitro expansion: increases Tregs | Treg suppressive function after in vitro expansion: reduces suppressive function
